Measured values taken from the supplement of paper PMC10307832.

How the values were obtained:
[1] = compound: CC1=C(C(=NN1)C)CC2=C(C3=C(S2)N(C(=O)N(C3=O)C)CC(C)C)C(=O)N4C[C@@H](CO4)O + COc1cc2c(Oc3ccc(NC(=O)C4(C(=O)Nc5ccc(F)cc5)CC4)cc3F)ccnc2cc1OCCCN1CCOCC1 [Foretinib] (partner 0.25 µM); experiment: relative viability (nuclei count vs DMSO), 5 days (fraction); higher = more cells survive
Outline: (§1)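 Relative viability was taken as the ratio of nuclei in treated wells to nuclei in vehicle wells. Lung cancer cell lines in 1536-well plates received compounds by pin tool one day after seeding, either one drug alone or a fixed anchor-drug dose plus five library-drug doses (not always all listed) in √10 steps. Nuclei were counted on 4× images after 5 days of treatment, and values are medians of duplicate plates.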

[2] = compound: Cc1ccccc1C(C(=O)NC1CCCCC1)N(C(=O)Cn1ccnc1C)c1cccc(F)c1 [IDH-C35] + Cc1cc(Nc2cc(N3CCN(C)CC3)nc(Sc3ccc(NC(=O)C4CC4)cc3)n2)n[nH]1 [Tozasertib] (partner 0.1 µM); experiment: as above
Outline: as §1

Row | Cell Line | relative viability ([1]; first compound 0.0025 µM) | relative viability ([1]; first compound 0.007906 µM) | relative viability ([1]; first compound 0.025 µM) | relative viability ([1]; first compound 0.07906 µM) | relative viability ([1]; first compound 0.25 µM) | relative viability ([2]; first compound 0.08 µM) | relative viability ([2]; first compound 0.253 µM) | relative viability ([2]; first compound 0.8 µM) | relative viability ([2]; first compound 2.53 µM) | relative viability ([2]; first compound 8 µM)
1 | 201T | 1.18 | 1.16 | 1.02 | 1.11 | 1.2 | 0.927 | 0.914 | 0.893 | 0.928 | 0.828
2 | NCI-H2170 | 0.989 | 1.09 | 0.984 | 0.972 | 1.08 | 0.781 | 0.724 | 0.678 | 0.728 | 0.693
3 | NCI-H460 | 1.01 | 1.09 | 0.949 | 1.01 | 1.11 | 0.614 | 0.396 | 0.493 | 0.336 | 0.412
4 | NCI-H661 | 1 | 0.97 | 0.95 | 0.978 | 0.998 | 0.326 | 0.358 | 0.372 | 0.346 | 0.355
5 | HCC-15 | 1.05 | 0.989 | 0.961 | 1.03 | 1.2 | 0.493 | 0.463 | 0.342 |  | 0.323
6 | ABC-1 | 1.02 | 1.06 | 0.955 | 1.07 | 1 | 0.188 | 0.171 | 0.188 | 0.146 | 0.176
7 | LCLC-103H | 0.89 | 0.672 | 0.817 | 0.84 | 1.02 | 0.554 | 0.435 | 0.47 | 0.499 | 0.38
8 | NCI-H441 | 1.43 | 1.2 | 0.826 | 0.937 | 0.968 | 0.597 | 0.561 | 0.623 | 0.624 | 0.583
9 | EPLC-272H | 0.73 | 0.618 | 0.765 | 0.657 | 0.643 | 0.262 | 0.193 | 0.254 | 0.333 | 0.217
